PMC9578445, “Association of respiratory failure with inhibition of NaV1.6 in the phrenic nerve” (Channels, 2022)

What was measured:
Nicotinic Acetylcholine = assay: Panlabs selection; assay type: binding
Source text: Supplement KCHL_A_2122309_SM6747.docx, table 1 | column: SSI-5; SSI-4; SSI-1

Iks = Iks (Homo sapiens, UniProt P51787); assay: Functional Ion Channel Panel Iks; assay type: biochemical; details: read-out: Iks %inh
Source text: (§1) Supplement KCHL_A_2122309_SM6747.docx, table 1 | column: SSI-5; SSI-3; SSI-4; SSI-1

Histamine H1 = biological target: T1, Histamine H1 (Homo sapiens, UniProt P35367); assay: Panlabs selection; assay type: binding
T1 construct: Panlabs
T1 sequence (P35367 whole entry): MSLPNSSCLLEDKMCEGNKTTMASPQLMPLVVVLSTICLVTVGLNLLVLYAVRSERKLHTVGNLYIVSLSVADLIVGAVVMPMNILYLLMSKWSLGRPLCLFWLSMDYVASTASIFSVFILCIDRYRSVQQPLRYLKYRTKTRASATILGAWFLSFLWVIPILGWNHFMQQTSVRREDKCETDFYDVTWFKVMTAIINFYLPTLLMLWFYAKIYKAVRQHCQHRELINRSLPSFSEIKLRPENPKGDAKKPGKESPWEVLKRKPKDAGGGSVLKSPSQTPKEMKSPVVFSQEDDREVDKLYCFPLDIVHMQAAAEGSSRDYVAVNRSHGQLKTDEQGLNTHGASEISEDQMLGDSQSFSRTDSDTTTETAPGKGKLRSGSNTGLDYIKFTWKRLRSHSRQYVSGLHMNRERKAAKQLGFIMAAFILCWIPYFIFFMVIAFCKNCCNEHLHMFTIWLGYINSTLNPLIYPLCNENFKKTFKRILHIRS
Source text: as §1

Transporter, Choline = Transporter, Choline (Homo sapiens, UniProt Q9GZV3); assay: Panlabs selection; assay type: binding
Sequence of Transporter, Choline (Q9GZV3 whole entry): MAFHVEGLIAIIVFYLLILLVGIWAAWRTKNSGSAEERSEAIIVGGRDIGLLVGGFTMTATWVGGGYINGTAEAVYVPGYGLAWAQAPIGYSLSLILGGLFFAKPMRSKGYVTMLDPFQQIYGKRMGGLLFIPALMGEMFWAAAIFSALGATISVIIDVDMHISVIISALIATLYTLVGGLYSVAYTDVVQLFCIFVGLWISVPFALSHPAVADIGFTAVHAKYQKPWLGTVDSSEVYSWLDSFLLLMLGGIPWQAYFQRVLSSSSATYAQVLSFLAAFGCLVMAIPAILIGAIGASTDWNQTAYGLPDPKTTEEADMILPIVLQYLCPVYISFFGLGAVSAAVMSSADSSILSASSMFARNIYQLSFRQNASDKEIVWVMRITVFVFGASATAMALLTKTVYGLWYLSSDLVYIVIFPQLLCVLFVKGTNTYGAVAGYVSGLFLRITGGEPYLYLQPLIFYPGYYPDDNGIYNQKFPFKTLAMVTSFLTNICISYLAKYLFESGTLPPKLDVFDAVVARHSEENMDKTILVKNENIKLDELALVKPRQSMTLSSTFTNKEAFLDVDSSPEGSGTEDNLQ
Source text: as §1

Adrenergic α2C = biological target: T2, Adrenergic α2C (Homo sapiens, UniProt P18825); assay: Panlabs selection; assay type: binding
T2 construct: Panlabs
T2 sequence (P18825 whole entry): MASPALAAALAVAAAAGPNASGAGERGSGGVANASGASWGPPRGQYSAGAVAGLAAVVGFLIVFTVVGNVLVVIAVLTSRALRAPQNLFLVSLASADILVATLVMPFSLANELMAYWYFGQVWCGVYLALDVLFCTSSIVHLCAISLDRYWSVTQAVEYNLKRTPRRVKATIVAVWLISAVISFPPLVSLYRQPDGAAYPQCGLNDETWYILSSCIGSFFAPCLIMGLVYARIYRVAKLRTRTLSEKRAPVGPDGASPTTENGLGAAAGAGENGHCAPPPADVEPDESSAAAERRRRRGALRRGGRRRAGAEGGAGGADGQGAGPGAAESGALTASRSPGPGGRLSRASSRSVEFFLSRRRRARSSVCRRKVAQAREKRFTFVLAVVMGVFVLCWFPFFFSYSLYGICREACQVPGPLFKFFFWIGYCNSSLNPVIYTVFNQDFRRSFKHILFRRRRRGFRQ
Source text: as §1

Adrenergic α2A = biological target: T3, Adrenergic α2A (Homo sapiens, UniProt P08913); assay: Panlabs selection; assay type: binding
T3 construct: Panlabs
T3 sequence (P08913 whole entry): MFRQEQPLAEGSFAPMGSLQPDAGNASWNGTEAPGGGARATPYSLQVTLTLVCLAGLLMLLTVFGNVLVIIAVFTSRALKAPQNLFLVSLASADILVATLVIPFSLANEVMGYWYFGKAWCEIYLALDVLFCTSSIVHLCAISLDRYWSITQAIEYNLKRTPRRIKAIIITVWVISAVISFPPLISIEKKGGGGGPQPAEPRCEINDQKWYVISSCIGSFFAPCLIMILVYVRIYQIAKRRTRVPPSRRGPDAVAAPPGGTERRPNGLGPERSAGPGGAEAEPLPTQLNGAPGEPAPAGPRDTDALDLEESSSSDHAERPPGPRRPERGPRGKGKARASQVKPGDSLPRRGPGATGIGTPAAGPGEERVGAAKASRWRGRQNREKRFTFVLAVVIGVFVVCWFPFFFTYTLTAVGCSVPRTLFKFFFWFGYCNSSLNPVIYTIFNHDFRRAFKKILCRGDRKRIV
Source text: as §1

Sequence of Iks (P51787 whole entry): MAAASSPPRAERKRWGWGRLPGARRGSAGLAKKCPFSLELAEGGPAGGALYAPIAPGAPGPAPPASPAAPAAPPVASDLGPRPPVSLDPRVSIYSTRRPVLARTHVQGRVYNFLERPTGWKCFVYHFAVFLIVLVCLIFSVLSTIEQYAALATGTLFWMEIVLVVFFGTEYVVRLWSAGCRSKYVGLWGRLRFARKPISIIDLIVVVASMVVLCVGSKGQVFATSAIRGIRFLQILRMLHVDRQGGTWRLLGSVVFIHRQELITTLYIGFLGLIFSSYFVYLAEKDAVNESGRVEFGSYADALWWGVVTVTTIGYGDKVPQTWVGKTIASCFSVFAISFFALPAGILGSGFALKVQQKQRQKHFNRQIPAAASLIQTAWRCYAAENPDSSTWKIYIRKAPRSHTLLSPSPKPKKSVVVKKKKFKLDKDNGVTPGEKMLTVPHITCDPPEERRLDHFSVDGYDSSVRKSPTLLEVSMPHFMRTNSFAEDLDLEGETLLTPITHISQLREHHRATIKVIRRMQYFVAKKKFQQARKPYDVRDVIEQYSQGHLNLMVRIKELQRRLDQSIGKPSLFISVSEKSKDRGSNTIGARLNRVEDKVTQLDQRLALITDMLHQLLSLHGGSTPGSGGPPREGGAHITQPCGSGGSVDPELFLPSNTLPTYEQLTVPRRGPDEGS

SMILES: O=S(=O)(Nc1nccs1)c1cc(Cl)c(NCCCCNC[C@H]2CCCN2)cc1F [SSCI-1]
- Ki (Nicotinic Acetylcholine): > 10 µM
- inhibition at 30 µM (Iks): -1%
- Ki (Histamine H1): > 10 µM
- Ki (Transporter, Choline): 3.19 µM
- Ki (Adrenergic α2C): > 10 µM
- Ki (Adrenergic α2A): > 10 µM
